Columns and labels:
[1] = tested on: NOX; assay: H2DCF-DA fluorescence in TGF-β stimulated HUVEC; assay type: cell-based, human; conditions: % of the activity in control cells, 'usually'
Experimental: HUVEC are cultured in endothelial basal medium supplemented with hydrocortisone (1 μg/mL, CalBioChem), bovine brain extract (12 μg/mL), gentamicin (50 μg/mL, CalBioChem), amphotericin B (50 ng/mL, CalBioChem EGF (10 ng/mL, and 10% FCS until the fourth passage. When the fifth passage was started, cells were cultured with a lower concentration of FCS (2%) in the absence of EGF, if not indicated otherwise. All experiments were done with cells of the fifth passage. The cells were incubated with OxLDL (oxidized low-density lipoprotein) or its buffer as control for 24 h, before detection of 02 formation.
HUVEC were plated on coverslips and made quiescent overnight in 0.5% BSA before stimulation with TGF-β. Cells were loaded for 10 minutes with 5 μM CM-H2DCFDA in phenol-red-free medium in the dark and then treated with TGF-β (R&D Systems) in the presence or absence of compounds according to the invention. Cells were then visualized by immunofluorescence microscopy after fixation and staining of the nuclei with DAPI or examined live using confocal microscopy. DCF fluorescence was visualized at an excitation wavelength of 488 nm and emission at 515 to 540 nm. […] For calculation, the absorbance at […] was normalized to absorbance at […] for each individual well. […] NOX activities were expressed as % of the activity in control cells. […]

[2] = tested on: NOX; assay: Chemiluminescence (Luminol) ROS measurement in cells; assay type: cell-based, human; conditions: % of the activity in control cells, 'usually'
Experimental: ROS was measured using the chemiluminescent probe luminol. Cells were cultured and plated as for Amplex Red except that the Amplex Red agent was replaced by 10 μg/mL luminol (Sigma 09235). Light emission was recorded continuously at 37° C. for 60 minutes using the luminescence function of the FluoStar Optima fluorescent plate reader. The mean of the four blank values was subtracted from each corrected value for each time point. NOX activities were expressed as % of the activity in control cells. Residual activity of DPI-treated cells was usually <10%.

[3] = tested on: NOX; assay: Nitroblue tetrazolium (NBT) superoxide test in cells; assay type: cell-based, human; conditions: DPI 10 μM, % of the activity in control cells, 'usually'
Experimental: Intracellular and extracellular superoxide was measured by a colorimetric technique using a quantitative nitroblue tetrazolium (NBT) test. SOD-inhibitable conversion of NBT to formazan, a fine blue precipitate, in the presence of superoxide anion was measured using Fluostar Optima spectrometer (BMG labtech). Following incubation with appropriate stimuli, cells were trypsinized (1× Trypsin-EDTA), collected by centrifugation, and washed with PBS to remove medium. 5×10^5 cells were plated on 48-well plates and incubated in Hank's balanced salt solution containing 0.5 mg/mL NBT with or without 800 U/mL SOD in the presence or absence of compounds according to the invention. As a control, DPI was included at a final concentration of 10 μM. After 2.5 h, cells were fixed and washed with methanol to remove non reduced NBT. The reduced formazan was then dissolved in 230 μl of 2M potassium hydroxide and in 280 μl of dimethylsulfoxide. The absorption was measured at 630 nm. For calculation, the absorbance at 630 nm was normalized for each individual well. The mean of the four blank values was subtracted from each corrected value for each time point. NOX activities were expressed as % of the activity in control cells. Residual activity of DPI-treated cells was usually <10%.

[4] = target: T1, NOX (Homo sapiens, UniProt P04839); assay: Amplex Red measurement of extracellular hydrogen peroxide (NOX activity) in DMSO-differentiated HL60 cells; assay type: cell-based
T1 construct: NOX activity as measured by Amplex Red using DMSO-differentiated HL60 cells; endogenous in cells; host or cells: HL-60 cells differentiated to the neutrophil phenotype with Me2SO
T1 sequence (P04839 2-570 limits assumed): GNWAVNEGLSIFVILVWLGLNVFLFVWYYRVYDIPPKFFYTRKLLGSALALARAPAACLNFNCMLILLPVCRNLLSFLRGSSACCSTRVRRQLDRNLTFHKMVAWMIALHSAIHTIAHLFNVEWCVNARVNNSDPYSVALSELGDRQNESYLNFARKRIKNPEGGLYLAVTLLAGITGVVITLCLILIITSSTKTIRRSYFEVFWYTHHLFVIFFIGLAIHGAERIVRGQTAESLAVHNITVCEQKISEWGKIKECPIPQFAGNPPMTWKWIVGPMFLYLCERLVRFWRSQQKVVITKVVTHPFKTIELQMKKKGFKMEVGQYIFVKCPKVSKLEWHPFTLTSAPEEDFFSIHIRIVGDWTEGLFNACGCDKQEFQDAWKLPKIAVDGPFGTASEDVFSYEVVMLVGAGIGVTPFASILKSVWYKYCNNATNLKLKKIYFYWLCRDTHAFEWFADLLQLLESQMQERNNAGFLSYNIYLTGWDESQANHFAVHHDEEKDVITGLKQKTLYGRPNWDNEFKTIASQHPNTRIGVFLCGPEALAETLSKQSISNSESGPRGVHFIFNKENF
T1 sequence (P13498 1-195 partner): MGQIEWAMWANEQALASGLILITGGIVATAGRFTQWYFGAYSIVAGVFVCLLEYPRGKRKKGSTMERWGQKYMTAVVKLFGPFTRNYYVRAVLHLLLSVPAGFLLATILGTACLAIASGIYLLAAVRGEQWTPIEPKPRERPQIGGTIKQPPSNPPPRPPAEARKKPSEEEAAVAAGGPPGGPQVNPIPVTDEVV
Experimental: Human acute myeloid leukemia cell line HL-60 was cultured in RPMI 1640 (Invitrogen) supplemented with 10% heat-inactivated calf serum, 2 mM glutamine, 100 U/mL penicillin (Sigma), and 100 μg streptomycin (Sigma) at 37° C. under a humidified atmosphere of 5% CO2. HL60 differentiation to the neutrophil phenotype was triggered by adding Me2SO (final concentration 1.25% v/v for 6 days) to the culture medium.
Extracellular hydrogen peroxide was measured using Amplex UltraRed (Molecular Probes). Cells were trypsinized (1× Trypsin-EDTA), collected by centrifugation, and resuspended in HBSS supplemented with 1% glucose. Cells were seeded into black 96-well plates at a density of 50′000 cells in 200 μl testing buffer (HBSS 1% glucose containing 0.005 U/mL horseradish peroxidase (Roche) and 50 μM Amplex Red in the presence or absence of compounds according to the invention. As a control, DPI was included at a final concentration of 10 μM The plates were placed in the fluorescent Optima Fluorescent plate reader and kept at 37° C. during 20 min. Fluorescence was measured for 15 min with excitation and emission wavelengths of 544 nm and 590 nm respectively. NOX activities were expressed as % of the activity in control cells. Residual activity of DPI-treated cells was usually <10%. […]
The Table 2 below summarizes the IC50 of NOX activity as measured by Amplex Red using DMSO-differentiated HL60 cells as described above: […]

Row | Compound | IC50 [4] [µM] | other results
1 | c1ccc([I+]c2ccccc2)cc1 [DPI, Diphenyl-iodonium] |  | Residual activity of DPI-treated cells [1]: < 10%; Residual activity of DPI-treated cells [2]: < 10%; Residual activity of DPI-treated cells [3]: < 10%
2 | Cc1c2c(=O)n(-c3ccccc3Cl)[nH]c2cc(=O)n1Cc1ccc(CN2CCN(C)CC2)cc1 [Compound 2, 2-(2-chlorophenyl)-4-methyl-5-{4-[(4-methylpiperazin-1-yl)methyl]benzyl}-1H-pyrazolo[4,3-c]pyridine-3,6(2H,5H)-dione] | < 5 | 
3 | COc1cccc(CCn2c(C)c3c(=O)n(-c4ccccc4Cl)[nH]c3cc2=O)c1 [Compound 4, 2-(2-chlorophenyl)-5-[2-(3-methoxyphenyl)ethyl]-4-methyl-1H-pyrazolo[4,3-c]pyridine-3,6(2H,5H)-dione] | < 5 | 
4 | Cc1c2c(=O)n(-c3ccccc3Cl)[nH]c2cc(=O)n1CC(c1ccccc1)N1CCOCC1 (centres unmarked) [Compound 3, 2-(2-chlorophenyl)-4-methyl-5-(2-morpholin-4-yl-2-phenylethyl)-1H-pyrazolo[4,3-c]pyridine-3,6(2H,5H)-dione] | < 5 | 
5 | Cc1c2c(=O)n(-c3ccccc3Cl)[nH]c2cc(=O)n1Cc1ccccc1N1CCOCC1 [Compound 1, 2-(2-chlorophenyl)-4-methyl-5-(2-morpholin-4-ylbenzyl)-1H-pyrazolo[4,3-c]pyridine-3,6(2H,5H)-dione] | < 5 | 

Further lines, with some results ahead:

Row | IC50 [4] [µM] | Compound | other results
6 | < 5 | CCOCCCn1c(C)c2c(=O)n(-c3nc(-c4ccccc4)cs3)[nH]c2cc1=O [Compound 7, 5-(3-ethoxypropyl)-4-methyl-2-(4-phenyl-1,3-thiazol-2-yl)-1H-pyrazolo[4,3-c]pyridine-3,6(2H,5H)-dione] | 
7 | < 5 | Cc1c2c(=O)n(-c3nc(-c4ccccc4)cs3)[nH]c2cc(=O)n1Cc1cccc(Oc2ccccc2)c1 [Compound 10, 4-methyl-5-(3-phenoxybenzyl)-2-(4-phenyl-1,3-thiazol-2-yl)-1H-pyrazolo[4,3-c]pyridine-3,6(2H,5H)-dione] | 
8 | < 5 | Cc1c2c(=O)n(-c3ccccc3Cl)[nH]c2cc(=O)n1C [Compound 8, 2-(2-chlorophenyl)-4,5-dimethyl-1H-pyrazolo[4,3-c]pyridine-3,6(2H,5H)-dione] | 
9 | < 5 | Cc1c2c(=O)n(-c3ccccc3F)[nH]c2cc(=O)n1CC(=O)NCc1ccccn1 [Compound 30, 2-[2-(2-fluorophenyl)-4-methyl-3,6-dioxo-1,2,3,6-tetra hydro-5H-pyrazolo[4,3-c]pyridin-5-yl]-N-(pyridin-2-ylmethyl)acetamide] | 
10 | < 5 | Cc1c2c(=O)n(-c3ccccc3Cl)[nH]c2cc(=O)n1NC(=O)COc1ccc(F)cc1 [Compound 13, N-[2-(2-chlorophenyl)-4-methyl-3,6-dioxo-1,2,3,6-tetra hydro-5H-pyrazolo[4,3-c]pyridin-5-yl]-2-(4-fluorophenoxy)acetamide] | 
11 | < 5 | Cc1c2c(=O)n(-c3ccccc3F)[nH]c2cc(=O)n1Cc1cccc(N2CCOCC2)n1 [Compound 20, 2-(2-fluorophenyl)-4-methyl-5-[(6-morpholin-4-ylpyridin-2-yl)methyl]-1H-pyrazolo[4,3-c]pyridine-3,6(2H,5H)-dione] | 
12 | < 5 | Cc1c2c(=O)n(-c3cccc(Cl)c3)[nH]c2cc(=O)n1CCCC(=O)N1CCN(C)CC1 [Compound 28, 2-(3-chlorophenyl)-4-methyl-5-[4-(4-methylpiperazin-1-yl)-4-oxobutyl]-1H-pyrazolo[4,3-c]pyridine-3,6(2H,5H)-dione] | 
